Laboratory results published in ChEMBL document CHEMBL5725503, “Heterocyclic compounds and methods for their use” (2017).

Target: T1, Type-2 angiotensin II receptor (Homo sapiens, UniProt P50052)
T1 sequence (P50052 whole entry): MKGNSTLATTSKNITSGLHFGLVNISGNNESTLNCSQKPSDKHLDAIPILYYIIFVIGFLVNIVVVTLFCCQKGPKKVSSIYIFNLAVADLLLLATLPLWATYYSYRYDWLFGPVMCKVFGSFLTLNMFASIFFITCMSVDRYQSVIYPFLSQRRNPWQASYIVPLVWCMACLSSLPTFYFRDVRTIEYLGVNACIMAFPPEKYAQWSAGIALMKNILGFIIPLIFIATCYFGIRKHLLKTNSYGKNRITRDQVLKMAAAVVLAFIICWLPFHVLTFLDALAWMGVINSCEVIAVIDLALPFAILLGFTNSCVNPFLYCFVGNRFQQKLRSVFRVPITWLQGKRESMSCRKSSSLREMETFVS
Test: AT2 Receptor Binding Assay: 120 μL membrane ([…]) was incubated with 15 μL of [125I]-CGP42112A and 15 μL of compound at RT for 1.5 hrs.The binding reaction was stopped by rapid filtration through Unifilter GF/C plates (presoaked in 0.3% (v:v) BSA).Plate was washed three times with ice cold wash buffer.The filtration plates were dried at 37° C. overnight.50 μL of scintillation cocktail was added to each well.Radioactivity was determined using MicroBetaTriltuunicroplate scintillation counter.

- IC50: 3.92 µM
Structure (SMILES): O=C(O)[C@@H]1CN(CC#Cc2ccc(F)cc2)CCN1C(=O)C(c1ccccc1)c1ccccc1
